Patent US12595504B2, “Methods for screening compounds for bactericidal activity and for determining the sensitivity of bacterial samples” (priority 2020, dated 2026)
Converted amounts (≈) assume the structure as drawn. Read-outs that look alike come from different tables or passages of the source.

Experiments:
Escherichia coli MG1655 = experiment: Antibiotic MIC determination (serial twofold dilutions, OD600 during 17 hours at 37° C.); assay type: cell-based; details: 37° C.; for MIC: Escherichia coli
Description: The Minimal Inhibitory Concentration (MIC) of the antibiotics was determined under the same culture conditions as the tests using the ATP assay kit. […] An exponentially growing culture (OD600=0.3) was added to each well (60 μl/well) of a sterile microtiter plate containing the test concentration of antibiotic (40 μl/well). The volume was completed to 120 μl with medium and OD600 nm measurements were performed using a microtiter plate reader (Infinite 200 PRO, TECAN) during 17 hours at 37° C.
In all the following experiments, the MIC values were measured for each antibiotic with parameters such as temperature, OD600 and equipment identical to those used for the bioluminescence assay.

[1] = system: E. coli MG1655 reporter cells; assay type: cell-based, Escherichia coli
Description: The classical luciferase was from Molecular Probes (ATP Determination Kit (A22066)). The thermostable luciferase was from “CheckLite AT100” (kikkoman). The Luciferin-luciferase reagents were prepared following manufacturer instructions. Bacteria from exponentially growing cultures (OD600=0.3) were added to each well (60 μl/well) of a black 96-microtiter plate (Greiner Bio-one, 655076) and 20 μl of the luciferin-luciferase reagent solution was added. The microtiter plate was incubated 5 min at 37° C. for reaction with the luciferase to eliminate traces of extracellular ATP. Then 40 μl of antibiotic solution (3 times concentrated) prepared in the culture medium were added. Bioluminescence of each well was monitored for 4 hours under shaking (218 rpm) and at 28 or 37° C., depending on the experiments (see legends of Figures). The reagent stability in presence or absence of antibiotics was checked in control experiments without bacteria but with 4 pmoles of ATP. Tests were also performed in 384-microtiter plates (Greiner Bio-one, 784076).
Aminoglycosides are bactericidal antibiotics causing translational miscoding with lethal consequences for the cell. Leakage of small molecules following an aminoglycoside shock was previously identified by different methods including radiolabelling. Therefore, the inventors investigated the response of live cells to aminoglycoside stress.

[2] = MOPS minimal medium glucose 0.4%
[3] = antibiotic at 12.5 μg/mL, LB, 37° C.
[4] = antibiotic at 25 μg/mL, LB, 37° C.
[5] = antibiotic at 50 μg/mL, LB, 37° C.
[6] = antibiotic at 100 μg/mL, LB, 37° C.
[7] = antibiotic at 200 μg/mL, LB, 37° C.
[8] = antibiotic at 400 μg/mL, LB, 37° C.
[9] = MG1655, read-out: MIC in MOPS glucose 0.4%, MOPS minimal medium glucose 0.4%
[10] = MG1655, LB medium, OD600 0.15 final, read-out: MIC in LB
[11] = antibiotic at 6.25 μg/mL, LB, 37° C.

| Compound | MIC in LB (Escherichia coli MG1655; LB medium, OD600 0.15 final) | MIC in MOPS glucose 0.4% (Escherichia coli MG1655; [2]) | Lag time before ATP [1, 3] | Lag time before ATP [1, 4] | Lag time before ATP [1, 5] | Lag time before ATP [1, 6] | Lag time before ATP [1, 7] | Lag time before ATP [1, 8] | MIC (Escherichia coli MG1655; [9]) | MIC (Escherichia coli MG1655; [10]) | other results |
| --- | --- | --- | --- | --- | --- | --- | --- | --- | --- | --- | --- |
| Cc1c(N)nc([C@H](CC(N)=O)NC[C@H](N)C(N)=O)nc1C(=O)N[C@H](C(=O)N[C@H](C)[C@@H](O)[C@H](C)C(=O)N[C@H](C(=O)NCCC1=N[C@@H](c2nc(C(=O)NCCCCN=C(N)N)cs2)CS1)[C@@H](C)O)[C@@H](O[C@@H]1O[C@@H](CO)[C@@H](O)[C@H](O)[C@@H]1O[C@H]1O[C@H](CO)[C@@H](O)[C@H](OC(N)=O)[C@@H]1O)c1cnc[nH]1 [Zeocin] | 200 µg/mL (≈ 140 µM) | 200 µg/mL (≈ 140 µM) | 112.2 min | 113.1 min | 97.5 min | 85.7 min | 68.6 min | 57.8 min |  |  | Lag time before ATP ([1]; antibiotic at 800 μg/mL, LB, 37° C.): 51.9 min |
| O=C(O)c1cn(C2CC2)c2cc(N3CCNCC3)c(F)cc2c1=O [Ciprofloxacin] |  |  |  |  |  |  |  |  | 6.25 µg/mL (≈ 18.9 µM) | 25 µg/mL (≈ 75.4 µM) |  |
| Gentamicin | 5.7 µg/mL | 0.6 µg/mL | 12.9 min |  |  |  |  |  |  |  | Shape of ATP release trace ([1]; LB medium, 37° C., FIG. 8): bi-phasic; Shape of ATP release trace ([1]; MOPS minimal medium (glucose 0.4%), FIG. 11): monophasic; Lag time before ATP ([1]; antibiotic at 0.19 μg/mL, LB, 37° C.): 136.1 min; Lag time before ATP ([1]; antibiotic at 0.39 μg/mL, LB, 37° C.): 136.3 min; Lag time before ATP ([1]; antibiotic at 0.78 μg/mL, LB, 37° C.): 67.1 min; Lag time before ATP ([1]; antibiotic at 1.56 μg/mL, LB, 37° C.): 54.0 min; Lag time before ATP ([1]; antibiotic at 3.12 μg/mL, LB, 37° C.): 30.2 min; Lag time before ATP [1, 11]: 16.2 min |
| CC(C)(O/N=C(\C(=O)N[C@@H]1C(=O)N2C(C(=O)[O-])=C(C[n+]3ccccc3)CS[C@H]12)c1csc(N)n1)C(=O)O [Ceftazidime] |  |  |  | 40.3 min | 8.6 min | 8.3 min | 8.0 min | 7.8 min | 100 µg/mL (≈ 183 µM) | 100 µg/mL (≈ 183 µM) |  |
| O=C1CN(/N=C/c2ccc([N+](=O)[O-])o2)C(=O)N1 [Nitrofurantoin] |  |  |  |  |  |  |  |  | 50 µg/mL (≈ 210 µM) | 50 µg/mL (≈ 210 µM) |  |
| CO[C@@]1(NC(=O)Cc2cccs2)C(=O)N2C(C(=O)O)=C(COC(N)=O)CS[C@@H]21 [Cefoxitin] |  |  | 10.9 min | 6.1 min | 4.9 min | 4.9 min | 4.9 min |  | 100 µg/mL (≈ 234 µM) | 50 µg/mL (≈ 117 µM) |  |
| CC1COc2c(N3CCN(C)CC3)c(F)cc3c(=O)c(C(=O)O)cn1c23 (stereo not drawn) [Ofloxacin] |  |  |  |  |  |  |  |  | 4 µg/mL (≈ 11.1 µM) | 4 µg/mL (≈ 11.1 µM) | Lag time of ATP release in minimal medium compared to rich medium (factor of decrease) ([1]; MOPS minimal medium vs LB): 2; Lag time before ATP ([1]; antibiotic at 1 μg/mL, LB, 37° C.): 105 min; Lag time before ATP ([1]; antibiotic at 2 μg/mL, LB, 37° C.): 95 min; Lag time before ATP ([1]; antibiotic at 4 μg/mL, LB, 37° C.): 84 min; Lag time before ATP ([1]; antibiotic at 8 μg/mL, LB, 37° C.): 77 min; Lag before ATP release (shortest, incompressible value) ([1]; highest concentrations tested, LB, 37° C.): 77 min |
| CO[C@H]1/C=C/O[C@@]2(C)Oc3c(C)c(O)c4c(O)c(c(/C=N/N5CCN(C)CC5)c(O)c4c3C2=O)NC(=O)/C(C)=C\C=C\[C@H](C)[C@H](O)[C@@H](C)[C@@H](O)[C@@H](C)[C@H](OC(C)=O)[C@@H]1C [Rifampicin] |  |  | 57.1 min | 38 min | 34.8 min | 34.6 min |  |  | 25 µg/mL (≈ 30.4 µM) | 50 µg/mL (≈ 60.8 µM) | Lag of ATP leakage ([1]; LB, FIG. 9): about 30 minutes; Lag time before ATP ([1]; antibiotic at 3.125 μg/mL, LB, 37° C.): 67 min; Lag time before ATP [1, 11]: 63.8 min |
| Bleomycin | 100 µg/mL | 200 µg/mL |  | 164.0 min | 142.0 min | 98.0 min | 78.0 min | 71.5 min |  |  |  |
| C=CC1=C(C(=O)O)N2C(=O)[C@@H](NC(=O)/C(=N\OCC(=O)O)c3csc(N)n3)[C@H]2SC1 [Cefixime] |  |  | 17.5 min | 16.7 min | 15.2 min | 14.9 min | 14.2 min |  | 50 µg/mL (≈ 110 µM) | 50 µg/mL (≈ 110 µM) |  |
